Data taken from patent US10864269B2, “Therapeutic combinations comprising anti-CD73 antibodies and uses thereof” (MedImmune Limited, priority 2014, dated 2020).

What was measured:
[1] = tested on: CD4+CD25− T cell proliferation; test: AMP-mediated suppression of CD4+CD25− T cell proliferation; assay type: cell-based; conditions: primary human CD4+CD25− T cells, 100 or 200 μM AMP, 72 hours, CFSE
Description: In an assay for AMP-mediated T-cell suppression, primary human CD4^+ T cells depleted of CD25^+ cells were isolated from the content of leukocyte cones and used as effector cells; each cone was processed separately. Briefly, the content from a leukocyte cone was diluted in PBS, then layered over FICOLL-PAQUE® Plus (GE Healthcare, Chalfont St Giles, UK) and centrifuged at 400×g for 40 minutes with brakes turned off. Peripheral blood mononuclear cells (PBMC) were then isolated from the interface and washed with PBS by centrifugation at 200×g for 10 minutes. Supernatant was discarded and cells were suspended in PBS. Viable cells were determined, then pelleted at 350×g for 5 minutes and suspended in ROBOSEP buffer (Stem Cell, Grenoble, France) at a concentration of 5×10^7 per mL. […]
Isolated effector cells were labeled with CFSE probe (3 μM) using the CELLTRACE CFSE cell proliferation kit (Life Technologies, Paisley, UK) at a cell density of 1×10^6 cells per mL in PBS containing 0.1% BSA with an incubation period of 15 minutes at 37° C. […] Phen0203 hIgG1 was received as a ready-to-use formulation (Medlmmune, Gaithersburg, Md.) and was diluted in phosphate-buffered saline (PBS). R347 was received as a ready-to-use formulation (Medlmmune, Gaithersburg, Md.) and was diluted in PBS. […]

TNFα = test: Mixed leukocyte reaction, TNFα supernatant levels; assay type: cell-based; conditions: human mixed leukocyte reaction, 72 hours, 1 μM each agent
Description: (§1) The release of immune activating cytokines IFNγ and TNFα was evaluated in human mixed leukocyte cultures with anti-CD73 monoclonal antibody alone and in combination with an adenosine receptor inhibitor (A2ARi). The levels of IFNγ and TNFα in supernatants were detected by ELISA. Human peripheral blood lymphocytes were set up in a mixed leukocyte reaction for 72 hours and stimulated with anti-CD73 alone, A2AR inhibitor alone or both agents. Peripheral blood mononuclear cells from pairwise combinations of 8 donors were incubated for 72 hours in the presence of 1 μM anti-CD73 antibody MEDI9447 and 1 μM A2ARi SCH58261, either alone or in combination. After incubation, supernatant levels of Interferon gamma (IFNγ) and Tumor Necrosis Factor Alpha (TNFα) were measured using a Mesoscale ELISA plate. The levels of IFNγ and TNFα observed after incubation with each compound were plotted as duplicate fold-control values using levels from incubation with an isotype control antibody as a negative control.

IFNγ = test: Mixed leukocyte reaction, IFNγ supernatant levels; assay type: cell-based; conditions: human mixed leukocyte reaction, 72 hours, 1 μM each agent
Description: as §1

[2] = tested on: CT26 murine colon carcinoma; test: CT26 syngeneic tumor model, MEDI9447 mIgG1 with anti-PD-1; assay type: in vivo, Balb/C mice
Description: Syngeneic tumors were established by subcutaneous (SC) injection of 0.1 ml of 5×10^6 CT26 cells/ml suspended in HBSS into the right flanks of 8- to 10-week-old animals.
Tumors were measured by caliper and the volumes of tumors (TV) were calculated using the following formula: TV=(L×W^2)/2 (1)
Mice were randomized into groups based on bodyweight. There were no animal substitutions. 60 female Balb/c mice were used in this study.
Animals were randomly assigned into 6 groups. Animals were administered MEDI9447(mIgG1). Test articles were administered by intraperitoneal (IP) injection twice weekly starting on Day 3.
CT26 murine colon carcinoma were implanted into syngeneic Balb/C mice and treated with anti-CD73 (MEDI9447 mIgG1; 10 mg/kg), anti-PD1 (0.5 mg/kg) or the combination (10 mg/kg anti-CD73 and 0.5 mg/kg anti-PD1). […] Tumor volumes from each group of animals were plotted for individual animals out to study day 40. No control group mice were tumor free by the end of the 40 day study period (See FIG. 6). […] None of the control group mice were tumor free by the end of the study. CT26 tumors were measured in mice treated with anti-CD73 (MEDI9447 mIgG1), anti-PD1 or the combination of anti-CD73 and anti-PD1. Mice were measured until study day 40, and humanely sacrificed once tumors reached 2000 mm^3. […] Median survival increased from 25 and 33 days (anti-CD73 and anti-PD1, respectively) compared to “undefined” at day 40 for the combination.

[3] = study day 40, anti-CD73 10 mg/kg, anti-PD1 0.5 mg/kg, ip 2x weekly, 4 doses

Row | Molecule | T cell proliferation in the presence of AMP [1] | TNFα supernatant levels / secretion (TNFα) | IFNγ supernatant levels (IFNγ) | Median survival ([2]; CT26, followed until study day 40) | Survival [2, 3] | Tumor free mice [2, 3]
1 | Nc1ncnc2c1ncn2[C@@H]1O[C@H](COP(=O)(O)CP(=O)(O)O)[C@@H](O)[C@H]1O [APCP, adenosine 5′-(α,β-methylene)diphosphate] | increase of T-cell proliferation | – | – | – | – | –
2 | Nc1nc2c(cnn2CCc2ccccc2)c2nc(-c3ccco3)nn12 [SCH58261, reference compound] | increase of T-cell proliferation | capable of inducing | capable of inducing | – | – | –
3 | MEDI9447 mIgG1: anti-CD73 antibody MEDI9447 in murine IgG1 format | – | capable of inducing | capable of inducing | 25 days | 10% | 10%
